Results on seven compounds are retold here after ChEMBL document CHEMBL3124744, “4-Functionalized 1,3-diarylpyrazoles bearing benzenesulfonamide moiety as selective potent inhibitors of the tumor associated carbonic anhydrase isoforms IX and XII” (Eur J Med Chem, 2014).

pKi: −log10 of the molar value.

One assay addresses Carbonic anhydrase 9 (Homo sapiens, UniProt Q16790).
For another assay, the target named is Carbonic anhydrase 12 (Homo sapiens, UniProt O43570).
Sequence of Carbonic anhydrase 12 (O43570 whole entry): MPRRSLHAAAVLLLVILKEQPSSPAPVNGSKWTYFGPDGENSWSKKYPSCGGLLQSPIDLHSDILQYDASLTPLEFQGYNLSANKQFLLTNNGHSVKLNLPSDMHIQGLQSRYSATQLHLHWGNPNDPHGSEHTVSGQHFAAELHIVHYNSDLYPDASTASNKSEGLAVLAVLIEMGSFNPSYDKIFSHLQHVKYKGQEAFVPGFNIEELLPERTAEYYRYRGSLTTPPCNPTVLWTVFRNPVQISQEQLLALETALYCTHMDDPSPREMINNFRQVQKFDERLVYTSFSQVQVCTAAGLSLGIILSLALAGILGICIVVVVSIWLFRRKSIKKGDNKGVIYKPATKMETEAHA

Description for Carbonic anhydrase 12: Inhibition of human carbonic anhydrase 12-mediated CO2 hydration preincubated for 10 mins by stopped-flow assay
Description for Carbonic anhydrase 9: Inhibition of human carbonic anhydrase 9-mediated CO2 hydration preincubated for 10 mins by stopped-flow assay

As for `NC(=O)c1cn(-c2ccc(S(N)(=O)=O)cc2)nc1-c1ccc(F)cc1`, the pKi (as a rule, −log10 of the Ki, conventionally taken in molar units) on Carbonic anhydrase 9 was 8.64. As to `NC(=O)c1cn(-c2ccc(S(N)(=O)=O)cc2)nc1-c1ccc([N+](=O)[O-])cc1`, the negative logarithm of the Ki (pKi) at Carbonic anhydrase 9 was 7.31. The same measure, in the same setting: the figure for `NC(=O)c1cn(-c2ccc(S(N)(=O)=O)cc2)nc1-c1cccs1` is 8.68. Regarding `COC(=O)c1cn(-c2ccc(S(N)(=O)=O)cc2)nc1-c1ccc(Br)cc1`, the negative-log Ki (pKi) at Carbonic anhydrase 12 is 7.36. `COC(=O)c1cn(-c2ccc(S(N)(=O)=O)cc2)nc1-c1ccc(Cl)cc1`: at Carbonic anhydrase 9, the negative-log Ki (pKi) is 7.77. For the compound `COC(=O)c1cn(-c2ccc(S(N)(=O)=O)cc2)nc1-c1ccc([N+](=O)[O-])cc1`, the negative-log Ki (pKi) at Carbonic anhydrase 9 is 8.28. Same read-out and setting: the figure for `NC(=O)c1cn(-c2ccc(S(N)(=O)=O)cc2)nc1-c1ccc(Cl)cc1` is 8.28.
